These results are taken from US9096602B2, “Substituted pyrrolo[2,3-B]pyrazines as ATR kinase inhibitors” (Vertex Pharmaceuticals Incorporated, priority 2011, dated 2015).

The target of the experiment is T1, ATR kinase (full-length ATR) (Homo sapiens, UniProt Q13535).
T1 construct: Assays were carried out at 25° C. in the presence of 5 nM full-length ATR
Kind of experiment: ATR Inhibition Assay (radioactive-phosphate incorporation). It counts as biochemical. The settings on record: Ki(app); 5 nM full-length ATR, 10 μM ATP, 800 μM target peptide, 25° C.; class symbols; read-out: ATR Inhibition Ki. Here is the method:
Compounds were screened for their ability to inhibit ATR kinase using a radioactive-phosphate incorporation assay. Assays were carried out in a mixture of 50 mM Tris/HCl (pH 7.5), 10 mM MgCl2 and 1 mM DTT. Final substrate concentrations were 10 μM [y-33P]ATP (3mCi 33P ATP/mmol ATP, Perkin Elmer) and 800 μM target peptide ([…]).
Assays were carried out at 25° C. in the presence of 5 nM full-length ATR. An assay stock buffer solution was prepared containing all of the reagents listed above, with the exception of ATP and the test compound of interest. […] The plate was pre-incubated for 10 minutes at 25° C. and the reaction initiated by addition of 15 μL [y-33P]ATP (final concentration 10 μM).
The reaction was stopped after […] by the addition of 30 μL 0.1M phosphoric acid containing 2 mM ATP. A multiscreen phosphocellulose filter 96-well plate (Millipore, Cat no. MAPHN0B50) was pretreated with 100 μL 0.2M phosphoric acid prior to the addition of 45 μL of the stopped assay mixture. The plate was washed with 5×200 μL 0.2M phosphoric acid.
After removing mean background values for all of the data points, Ki(app) data were calculated from non-linear regression analysis of the initial rate data using the Prism software package (GraphPad Prism version 3.0cx for Macintosh, GraphPad Software, San Diego Calif., USA).

Each structure is given as a SMILES string.

T1 sequence (Q13535 whole entry): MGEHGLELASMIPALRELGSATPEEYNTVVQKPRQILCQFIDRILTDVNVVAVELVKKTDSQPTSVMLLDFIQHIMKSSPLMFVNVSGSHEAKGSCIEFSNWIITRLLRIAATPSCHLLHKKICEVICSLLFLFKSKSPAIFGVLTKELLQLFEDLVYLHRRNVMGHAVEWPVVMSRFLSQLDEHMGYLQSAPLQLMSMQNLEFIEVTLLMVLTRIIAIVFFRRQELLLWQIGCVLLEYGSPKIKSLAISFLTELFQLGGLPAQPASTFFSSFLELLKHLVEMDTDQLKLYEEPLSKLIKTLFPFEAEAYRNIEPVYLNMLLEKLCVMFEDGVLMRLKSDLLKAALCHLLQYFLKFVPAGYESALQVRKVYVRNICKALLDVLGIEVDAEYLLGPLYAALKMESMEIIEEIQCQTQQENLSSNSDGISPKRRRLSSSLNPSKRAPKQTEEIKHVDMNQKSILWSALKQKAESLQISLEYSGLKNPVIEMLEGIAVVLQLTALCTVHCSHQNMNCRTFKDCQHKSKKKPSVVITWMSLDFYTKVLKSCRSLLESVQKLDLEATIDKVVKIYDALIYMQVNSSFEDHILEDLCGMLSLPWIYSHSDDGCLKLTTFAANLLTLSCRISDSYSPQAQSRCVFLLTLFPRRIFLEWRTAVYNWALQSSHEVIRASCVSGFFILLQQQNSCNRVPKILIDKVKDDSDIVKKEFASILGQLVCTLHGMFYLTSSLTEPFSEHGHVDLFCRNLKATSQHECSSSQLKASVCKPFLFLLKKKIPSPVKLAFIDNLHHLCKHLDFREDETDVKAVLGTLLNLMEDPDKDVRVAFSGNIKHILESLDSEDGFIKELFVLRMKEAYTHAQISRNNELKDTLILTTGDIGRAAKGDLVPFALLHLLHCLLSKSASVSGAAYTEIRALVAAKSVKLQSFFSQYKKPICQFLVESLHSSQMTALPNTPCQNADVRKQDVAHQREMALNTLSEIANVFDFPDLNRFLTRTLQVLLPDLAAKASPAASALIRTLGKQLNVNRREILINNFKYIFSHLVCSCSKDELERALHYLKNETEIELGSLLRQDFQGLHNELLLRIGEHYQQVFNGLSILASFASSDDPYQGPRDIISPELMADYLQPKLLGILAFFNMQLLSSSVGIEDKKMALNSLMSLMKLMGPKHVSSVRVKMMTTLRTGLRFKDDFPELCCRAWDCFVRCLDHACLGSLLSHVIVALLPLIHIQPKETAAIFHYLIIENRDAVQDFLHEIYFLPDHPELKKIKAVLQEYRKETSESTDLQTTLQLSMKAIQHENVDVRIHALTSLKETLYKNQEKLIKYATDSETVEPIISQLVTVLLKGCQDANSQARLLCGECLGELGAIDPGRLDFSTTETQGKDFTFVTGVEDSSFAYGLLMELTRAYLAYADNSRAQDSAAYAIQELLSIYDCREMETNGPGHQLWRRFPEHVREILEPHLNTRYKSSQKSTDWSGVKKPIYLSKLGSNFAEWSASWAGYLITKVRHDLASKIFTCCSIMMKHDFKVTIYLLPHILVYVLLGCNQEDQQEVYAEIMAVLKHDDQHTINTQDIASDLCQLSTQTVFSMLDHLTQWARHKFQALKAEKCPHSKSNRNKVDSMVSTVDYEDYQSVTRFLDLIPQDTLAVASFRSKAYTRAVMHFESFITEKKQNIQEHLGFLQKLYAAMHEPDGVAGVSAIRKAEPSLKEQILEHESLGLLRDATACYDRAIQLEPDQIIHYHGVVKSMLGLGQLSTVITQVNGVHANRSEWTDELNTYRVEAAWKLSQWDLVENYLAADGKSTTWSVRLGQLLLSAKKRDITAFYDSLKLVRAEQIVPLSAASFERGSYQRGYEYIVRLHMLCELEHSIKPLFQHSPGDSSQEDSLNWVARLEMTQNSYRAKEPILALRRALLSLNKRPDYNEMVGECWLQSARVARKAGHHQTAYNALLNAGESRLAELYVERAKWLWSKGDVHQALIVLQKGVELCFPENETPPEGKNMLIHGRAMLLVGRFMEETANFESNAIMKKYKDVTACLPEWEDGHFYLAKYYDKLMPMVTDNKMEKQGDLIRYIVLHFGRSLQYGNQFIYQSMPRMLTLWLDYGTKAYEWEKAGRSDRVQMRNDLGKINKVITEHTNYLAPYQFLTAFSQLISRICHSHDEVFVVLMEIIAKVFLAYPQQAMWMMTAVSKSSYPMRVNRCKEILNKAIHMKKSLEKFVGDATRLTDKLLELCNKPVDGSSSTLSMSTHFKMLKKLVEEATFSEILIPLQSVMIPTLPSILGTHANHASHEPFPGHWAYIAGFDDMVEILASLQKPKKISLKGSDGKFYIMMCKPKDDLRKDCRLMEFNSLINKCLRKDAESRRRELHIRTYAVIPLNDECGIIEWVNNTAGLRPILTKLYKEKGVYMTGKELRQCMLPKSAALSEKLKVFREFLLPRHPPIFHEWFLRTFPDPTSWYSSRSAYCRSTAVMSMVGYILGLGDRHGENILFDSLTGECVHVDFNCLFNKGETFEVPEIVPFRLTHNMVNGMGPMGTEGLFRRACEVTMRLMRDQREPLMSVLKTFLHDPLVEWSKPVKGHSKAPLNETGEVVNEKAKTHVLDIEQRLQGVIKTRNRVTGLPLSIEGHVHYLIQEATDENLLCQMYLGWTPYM

With `CC(C)S(=O)(=O)c1ccc(-c2cnc3[nH]cc(C(=O)NCc4cccc(F)c4F)c3n2)cc1` [Compound I-88, N-[(2,3-difluorophenyl)methyl]-2-(4-isopropylsulfonylphenyl)-5H-pyrrolo[2,3-b]pyrazine-7-carboxamide], the Ki was below 100 nM.
For the compound `CC(C)S(=O)(=O)c1ccc(-c2cnc3[nH]cc(C(=O)NCc4cccc(Cl)c4F)c3n2)cc1` [Compound I-92, N-[(3-chloro-2-fluoro-phenyl)methyl]-2-(4-isopropylsulfonylphenyl)-5H-pyrrolo[2,3-b]pyrazine-7-carboxamide], the Ki is below 100 nM.
Consider `CC(C)S(=O)(=O)c1ccc(-c2cnc3[nH]cc(C(=O)NCc4ccc(N(C)C)cc4)c3n2)cc1` [Compound I-49, N-[(4-dimethylaminophenyl)methyl]-2-(4-isopropylsulfonylphenyl)-5H-pyrrolo[2,3-b]pyrazine-7-carboxamide], for which the Ki was below 100 nM.
As for `CC(C)S(=O)(=O)c1ccc(-c2cnc3[nH]cc(C(=O)N(Cc4ccccc4)c4ccccc4)c3n2)cc1` [Compound I-8, N-benzyl-2-(4-isopropylsulfonylphenyl)-N-phenyl-5H-pyrrolo[2,3-b]pyrazine-7-carboxamide], the Ki fell in the range of 500 to 5000 nM.
As to `CC(C)S(=O)(=O)c1ccc(-c2cnc3[nH]cc(C(=O)N4CCN(C)CC4)c3n2)cc1` [Compound I-114, [2-(4-isopropylsulfonylphenyl)-5H-pyrrolo[2,3-b]pyrazin-7-yl]-(4-methylpiperazin-1-yl)methanone], the Ki fell in the range of 500 to 5000 nM.
In the case of `CC(C)S(=O)(=O)c1ccc(-c2cnc3[nH]cc(C(=O)Nc4cccc(N)c4)c3n2)cc1` [Compound I-20, N-(3-aminophenyl)-2-(4-isopropylsulfonylphenyl)-5H-pyrrolo[2,3-b]pyrazine-7-carboxamide], the Ki is below 100 nM.
Next, `CC(C)S(=O)(=O)c1ccc(-c2cnc3[nH]cc(C(=O)NCCc4ccccn4)c3n2)cc1` [Compound I-61, 2-(4-isopropylsulfonylphenyl)-N-[2-(2-pyridyl)ethyl]-5H-pyrrolo[2,3-b]pyrazine-7-carboxamide]: below 100 nM; `CC(C)S(=O)(=O)c1ccc(-c2cnc3[nH]cc(C(=O)Nc4cccc(F)c4)c3n2)cc1` [Compound I-73, N-(3-fluorophenyl)-2-(4-isopropylsulfonylphenyl)-5H-pyrrolo[2,3-b]pyrazine-7-carboxamide]: below 100 nM; `CC(C)S(=O)(=O)c1ccc(-c2cnc3[nH]cc(C(=O)NC(CCO)c4cccc(O)c4)c3n2)cc1` (stereo not shown) [Compound I-77, N-[3-hydroxy-1-(3-hydroxyphenyl)propyl]-2-(4-isopropylsulfonylphenyl)-5H-pyrrolo[2,3-b]pyrazine-7-carboxamide]: 100 to 500 nM.
Turning to `Cc1ccc(F)cc1CNC(=O)c1c[nH]c2ncc(-c3ccc(S(=O)(=O)C(C)C)cc3)nc12` [Compound I-87, N-[(5-fluoro-2-methyl-phenyl)methyl]-2-(4-isopropylsulfonylphenyl)-5H-pyrrolo[2,3-b]pyrazine-7-carboxamide], the Ki was below 100 nM.
Next, `CC(C)S(=O)(=O)c1ccc(-c2cnc3[nH]cc(C(=O)NCc4ccncc4)c3n2)cc1` [Compound I-60, 2-(4-isopropylsulfonylphenyl)-N-(4-pyridylmethyl)-5H-pyrrolo[2,3-b]pyrazine-7-carboxamide]: 100 to 500 nM.
`Cc1cccc([C@@H](CCO)NC(=O)c2c[nH]c3ncc(-c4ccc(S(=O)(=O)C(C)C)cc4)nc23)c1` [Compound I-102, N-[(1R)-3-hydroxy-1-(m-tolyl)propyl]-2-(4-isopropylsulfonylphenyl)-5H-pyrrolo[2,3-b]pyrazine-7-carboxamide]: the Ki fell in the range of 100 to 500 nM.
The value for `CC(C)S(=O)(=O)c1ccc(-c2cnc3[nH]cc(C(=O)NCC4CCCC4)c3n2)cc1` [Compound I-30, N-(cyclopentylmethyl)-2-(4-isopropylsulfonylphenyl)-5H-pyrrolo[2,3-b]pyrazine-7-carboxamide] was 500 to 5000 nM.
